# Assay results as given in patent publication US20190322676A1, “CERAMIDE GALACTOSYLTRANSFERASE INHIBITORS FOR THE TREATMENT OF DISEASE” (BioMarin Pharmaceutical Inc., priority 2016, published 2019).
# Counter-ions that a name gives are not always drawn.
# Molecular target: T1, human CGT (ceramide galactosyltransferase), CHO/CGT lysate (Homo sapiens, UniProt Q16880)
# T1 construct: Full-length human CGT cDNA was cloned into the BamH1/Xho1 site of pcDNA3.1 (+); expressed in transfected cells; host or cells: Chinese hamster ovary (CHO) cells; lysate prepared with M-PER
# T1 sequence (Q16880 21-541): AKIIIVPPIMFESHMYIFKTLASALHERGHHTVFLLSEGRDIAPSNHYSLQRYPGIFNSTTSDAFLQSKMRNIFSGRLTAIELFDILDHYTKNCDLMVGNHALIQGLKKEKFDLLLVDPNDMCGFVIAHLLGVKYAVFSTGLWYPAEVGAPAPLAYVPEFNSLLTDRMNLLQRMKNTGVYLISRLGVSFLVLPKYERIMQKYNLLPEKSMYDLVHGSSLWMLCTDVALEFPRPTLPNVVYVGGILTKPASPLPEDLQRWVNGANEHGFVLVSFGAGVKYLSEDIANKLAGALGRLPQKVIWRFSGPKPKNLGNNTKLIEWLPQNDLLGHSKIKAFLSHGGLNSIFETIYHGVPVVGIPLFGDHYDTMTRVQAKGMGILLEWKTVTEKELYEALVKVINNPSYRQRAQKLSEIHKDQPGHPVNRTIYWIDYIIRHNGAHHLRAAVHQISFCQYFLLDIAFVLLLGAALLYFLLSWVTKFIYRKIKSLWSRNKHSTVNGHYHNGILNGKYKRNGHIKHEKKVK
# Experiment: CGT enzyme assay, RapidFire/MS/MS readout (Table 1 ranges with one asterisk *)
# Format: biochemical
# Settings: RapidFire method (range with one asterisk *)
# Method: Full-length human CGT cDNA was cloned into the BamH1/Xho1 site of pcDNA3.1 (+) mammalian expression vector (V90-20, Invitrogen, Carlsbad, Calif.) and the plasmid was transfected into Chinese hamster ovary (CHO) cells. Lysate was prepared using M-PER (Mammalian Protein Extraction Reagent, ThermoFisher Scientific, Grand Island, N.Y.) in the presence of a protease inhibitor cocktail (P8340, Sigma, Saint Louis, Mo.). Each 100 mm dish (100% confluent, approximately 1×10^7 cells) was lysed with 250 μL of M-PER containing protease inhibitors. Protein concentration was determined using a Pierce BCA protein assay kit (ThermoFisher Scientific). Four micrograms of CHO/CGT lysate was incubated with various concentrations of a compound (0.001 μM-50 μM) in 10 mM HEPES (pH 7.2) containing 35 μM dioleoylphosphatidylcholine, 5 mM MgCl2, 5 mM MnCl2, 1% BSA, 15 mM KCl, 1 mM EGTA, 8 mM CHAPS, 10 μM C6-NBD-dihydro-ceramide and 17.5 μM UDP-galactose in a final reaction volume of 20 μL at 37° C. for 1 hour. The final concentration of DMSO was 0.5% in both compound-treated and mock-treated samples. Tween 80 (0.01%) was optionally added to the reaction mixture to help solubilize the compounds. Each individual reaction was diluted with 80 μL of methanol:acetronitrile (1:3) containing 5 μM N-docdecanoyl-NBD-galactosylceramide (internal standard) to stop the reaction. 200 μL H2O:acetonitile (1:1) was added to precipitate the protein. After sufficient mixing, the plates were centrifuged at 2469 g for 38 minutes, 200 μL of supernatant was transferred to a LC/MS 96-deep well plate and a second spin was performed at 2469 g for 10 minutes. The final supernatant was injected in triplicate for RapidFire/MS/MS analysis.
# Quantitative Analysis Using the RapidFire/MS/MS Method:
# The quantitative analysis of C6-NBD-dihydro-ceramide and C6-NBD-dihydro-galactosylceramide was performed on a Rapid Fire 360 high-throughput mass spectrometry system (Agilent Technologies, Palo Alto, Calif.) coupled with a API4000^+ triple quadrupole mass spectrometer (Applied Biosystems, Concord, Ontario, Canada). RapidFire software packages, including RapidFire Control panel, RapidFire UI and RapidFire Integrator (Agilent Technologies), were used to control the RapidFire instrument and to process data. Analyst 1.6.2 software packages (Applied Biosystems) were used to control the MS system and acquire MS data. […] of sample was loaded on a micro-scale C4 solid-phase extraction (SPE) cartridge (Agilent Technologies) and salts were removed using water supplemented with 0.1% formic acid at the flow rate of 1.5 mL/min for 3 sec. C6-NBD-dihydro-ceramide and C6-NBD-dihydro-galactosylceramide were co-eluted into the mass spectrometer using acetonitrile containing 0.1% formic acid at the flow rate of 1.0 mL/min for 3 sec. The total cycle time of one injection was 8 secs. The MS/MS detection was performed in ESI negative mode. The mass transition of C6-NBD-dihydro-galactosylceramide was m/z 752.6→678.6 using a −40 V collision energy, the mass transition of C6-NBD-dihydro-ceramide was m/z 590.6→115.8 using a −40 V collision energy and the mass transition of N-docdecanoyl-NBD-galactosylceramide was m/z 820.9→746.3 using a −45 V collision energy.
# The C6-NBD-dihydro-galactosylceramide reading was normalized first by dividing the peak area of C6-NBD-dihydro-galactosylceramide by the peak area of the internal standard, N-docdecanoyl-NBD-galactosylceramide. IC50 values (see Table 1, where data ranges with one asterix (*) correspond to analysis using the RapidFire/MS/MS method, and data ranges with two asterixes (**) correspond to analysis using the RapidFire/MS/MS method with 0.01% Tween added) were generated from sigmoidal dose-response curves (variable slope) with GraphPad Prism software (GraphPad Software, Inc., San Diego, Calif.) using the normalized peak areas of C6-NBD-dihydro-galactosylceramide or the percent inhibition of C6-NBD-dihydro-galactosylceramide accumulation relative to DMSO control. […]
row,SMILES,IC50 [µM]
1,"NC1CC2CCC(C1)N2C(=O)[C@@H](NS(=O)(=O)c1ccc2cc(OC3CCCC3)ccc2c1)C(F)(F)c1ccc(I)cc1 (stereo partly drawn) [Compound 42-1, N-((2R)-3-(3-amino-8-azabicyclo[3.2.1]octan-8-yl)-1,1-difluoro-1-(4-iodophenyl)-3-oxopropan-2-yl)-6-(cyclopentyloxy)naphthalene-2-sulfonamide trifluoroacetate]",< 1
2,"NC1CC2CCC(C1)N2C(=O)[C@H](NS(=O)(=O)c1ccc2cc(OC3CCCC3)ccc2c1)C(F)(F)c1ccc(I)cc1 (stereo partly drawn) [Compound 42-2, N-((2S)-3-(3-amino-8-azabicyclo[3.2.1]octan-8-yl)-1,1-difluoro-1-(4-iodophenyl)-3-oxopropan-2-yl)-6-(cyclopentyloxy) naphthalene-2-sulfonamide trifluoroacetate]",1 to 10
3,"NC1CCN(C(=O)[C@@H](NS(=O)(=O)c2ccc3cc(OC4CCCC4)ccc3c2)C(F)(F)c2ccc(-c3ccccc3)cc2)CC1 [Compound 43-1, (R)—N-(1-([1,1′-biphenyl]-4-yl)-3-(4-aminopiperidin-1-yl)-1,1-difluoro-3-oxopropan-2-yl)-6-(cyclopentyloxy)naphthalene-2-sulfonamide]",< 1
4,"NC1CCN(C(=O)[C@H](NS(=O)(=O)c2ccc3cc(OC4CCCC4)ccc3c2)C(F)(F)c2ccc(-c3ccccc3)cc2)CC1 [Compound 43-2, (S)—N-(1-([1,1′-biphenyl]-4-yl)-3-(4-aminopiperidin-1-yl)-1,1-difluoro-3-oxopropan-2-yl)-6-(cyclopentyloxy)naphthalene-2-sulfonamide]",1 to 10
5,"CN([C@H](C(=O)N1CCC(N)CC1)C(F)(F)c1ccc(Br)cc1)S(=O)(=O)c1ccc2cc(OC3CCCC3)ccc2c1 [Compound 44-1, (R)—N-(3-(4-aminopiperidin-1-yl)-1-(4-bromophenyl)-1,1-difluoro-3-oxopropan-2-yl)-6-(cyclopentyloxy)-N-methylnaphthalene-2-sulfonamide]",< 1
6,"CN([C@@H](C(=O)N1CCC(N)CC1)C(F)(F)c1ccc(Br)cc1)S(=O)(=O)c1ccc2cc(OC3CCCC3)ccc2c1 [Compound 44-2, (S)—N-(3-(4-aminopiperidin-1-yl)-1-(4-bromophenyl)-1,1-difluoro-3-oxopropan-2-yl)-6-(cyclopentyloxy)-N-methylnaphthalene-2-sulfonamide]",1 to 10
7,"COc1ccc(C(F)(F)[C@H](NS(=O)(=O)c2ccc3cc(OC4CCCC4)ccc3c2)C(=O)N2C3CCC2CC(N)C3)cc1 (stereo partly drawn) [Compound 45-1, N-((2R)-3-(3-amino-8-azabicyclo[3.2.1]octan-8-yl)-1,1-difluoro-1-(4-methoxyphenyl)-3-oxopropan-2-yl)-6-(cyclopentyloxy)naphthalene-2-sulfonamide]",10 to 30
8,"COc1ccc(C(F)(F)[C@@H](NS(=O)(=O)c2ccc3cc(OC4CCCC4)ccc3c2)C(=O)N2C3CCC2CC(N)C3)cc1 (stereo partly drawn) [Compound 45-2, N-((2S)-3-(3-amino-8-azabicyclo[3.2.1]octan-8-yl)-1,1-difluoro-1-(4-methoxyphenyl)-3-oxopropan-2-yl)-6-(cyclopentyloxy)naphthalene-2-sulfonamide]",1 to 10
9,"CC(C)Oc1ccc2cc(S(=O)(=O)N(C)[C@H](C(=O)N3C4CCC3CC(N)C4)C(F)(F)c3ccc(Br)cc3)ccc2c1 (stereo partly drawn) [Compound 46-1, N-((2R)-3-(3-amino-8-azabicyclo[3.2.1]octan-8-yl)-1-(4-bromophenyl)-1,1-difluoro-3-oxopropan-2-yl)-6-isopropoxy-N-methylnaphthalene-2-sulfonamide trifluoroacetate]",1 to 10
10,"CC(C)Oc1ccc2cc(S(=O)(=O)N(C)[C@@H](C(=O)N3C4CCC3CC(N)C4)C(F)(F)c3ccc(Br)cc3)ccc2c1 (stereo partly drawn) [Compound 46-2, N-((2S)-3-(3-amino-8-azabicyclo[3.2.1]octan-8-yl)-1-(4-bromophenyl)-1,1-difluoro-3-oxopropan-2-yl)-6-isopropoxy-N-methylnaphthalene-2-sulfonamide trifluoroacetate]",30 to 100
11,"NC1CC2CCC(C1)N2C(=O)[C@@H](NS(=O)(=O)c1ccc2cc(OC3CCC3)ccc2c1)C(F)(F)c1ccc(Br)cc1 (stereo partly drawn) [Compound 47-1, N-((2R)-3-(3-amino-8-azabicyclo[3.2.1]octan-8-yl)-1-(4-bromophenyl)-1,1-difluoro-3-oxopropan-2-yl)-6-cyclobutoxynaphthalene-2-sulfonamide]",1 to 10
12,"NC1CC2CCC(C1)N2C(=O)[C@H](NS(=O)(=O)c1ccc2cc(OC3CCC3)ccc2c1)C(F)(F)c1ccc(Br)cc1 (stereo partly drawn) [Compound 47-2, N-((2S)-3-(3-amino-8-azabicyclo[3.2.1]octan-8-yl)-1-(4-bromophenyl)-1,1-difluoro-3-oxopropan-2-yl)-6-cyclobutoxynaphthalene-2-sulfonamide]",10 to 30
13,"CN([C@H](C(=O)N1C2CCC1CC(N)C2)C(F)(F)c1ccc(-c2ccccc2)cc1)S(=O)(=O)c1ccc2cc(OC3CCCC3)ccc2c1 (stereo partly drawn) [Compound 49-1, N-((2R)-1-([1,1′-biphenyl]-4-yl)-3-(3-amino-8-azabicyclo[3.2.1]octan-8-yl)-1,1-difluoro-3-oxopropan-2-yl)-6-(cyclopentyloxy)-N-methylnaphthalene-2-sulfonamide]",1 to 10
14,"CN([C@@H](C(=O)N1C2CCC1CC(N)C2)C(F)(F)c1ccc(-c2ccccc2)cc1)S(=O)(=O)c1ccc2cc(OC3CCCC3)ccc2c1 (stereo partly drawn) [Compound 49-2, N-((2S)-1-([1,1′-biphenyl]-4-yl)-3-(3-amino-8-azabicyclo[3.2.1]octan-8-yl)-1,1-difluoro-3-oxopropan-2-yl)-6-(cyclopentyloxy)-N-methylnaphthalene-2-sulfonamide]",10 to 30
15,"NC1CC2CCC(C1)N2C(=O)[C@@H](NS(=O)(=O)c1ccc(OCC2CCCCC2)cc1)C(F)(F)c1ccc(-c2ccc(Cl)cc2)cc1 (stereo partly drawn) [Compound 50-1, N-((2R)-3-(3-amino-8-azabicyclo[3.2.1]octan-8-yl)-1-(4′-chloro-[1,1′-biphenyl]-4-yl)-1,1-difluoro-3-oxopropan-2-yl)-4-(cyclohexylmethoxy) benzenesulfonamide trifluoroacetate]",< 1
16,"NC1CC2CCC(C1)N2C(=O)[C@H](NS(=O)(=O)c1ccc(OCC2CCCCC2)cc1)C(F)(F)c1ccc(-c2ccc(Cl)cc2)cc1 (stereo partly drawn) [Compound 50-2, N-((2S)-3-(3-amino-8-azabicyclo[3.2.1]octan-8-yl)-1-(4′-chloro-[1,1′-biphenyl]-4-yl)-1,1-difluoro-3-oxopropan-2-yl)-4-(cyclohexylmethoxy)benzenesulfonamide trifluoroacetate]",10 to 30
